Data on 2 compounds can be found in patent publication US4965351A, “4-demethoxy-4-amino-anthracyclines” (Farmitalia Carlo Erba S.R.L., priority 1987, dated 1990).

For data set [1], the system named is human colon adenocarcinoma cells sensitive (LoVo) to doxorubicin. Kind of data set: Colony inhibition test after 4 h treatment, LoVo (in vitro cytotoxicity). As to conditions: read-out: LoVo ID50. In kind it is cell-based. As to the method:
(§1) The glycosides are antitumor agents. The activity of a representative compound of formula (I), 4-demethoxy-4-amino-daunorubicin (Ia), has been assessed by comparing its in vitro cytotoxicity against that of daunorubicin (DNR) in human colon adenocarcinoma cells sensitive (LoVo) or resistant (LoVo/DX) to doxorubicin.
(§2) Colony inhibition test after 4 h. treatment.

The test system of data set [2] is human colon adenocarcinoma cells resistant (LoVo/DX) to doxorubicin. Kind of data set: Colony inhibition test after 4 h treatment, LoVo/DX (in vitro cytotoxicity). In kind it is cell-based. As to conditions: read-out: LoVo/DX ID50. As to the method: as §1, §2
For data set [3], the system named is disseminated Gross leukaemia. Kind of data set: In vivo activity against disseminated Gross leukaemia in mice, treatment i.v. on day 1 after tumor inoculum. The source says: The in vivo activities of (Ia) and DNR against disseminated Gross leukaemia in mice also determined.
Treatment i.v on day 1 after tumor inoculum
TOX represents toxic death

Values after ≈ are worked out from the molar mass of the structure shown. Read-outs that look alike come from different tables or passages of the source.

`CC(=O)[C@]1(O)Cc2c(O)c3c(c(O)c2[C@@H](O[C@H]2C[C@H](N)[C@H](O)[C@H](C)O2)C1)C(=O)c1c(N)cccc1C3=O` [Ia, 4-demethoxy-4-amino-daunorubicin]: the IC50 in data set [1] (LoVo cells (doxorubicin-sensitive), 4 h treatment, colony inhibition) turned out to be 0.7 µg/mL (≈ 1.37 µM); in data set [2], 99 µg/mL (≈ 193 µM). Also, the T/C % in data set [3] (1.6 mg/Kg i.v. on day 1) was 183%; in data set [3] (1.9 mg/Kg i.v. on day 1), 192%; in data set [3] (2.29 mg/Kg i.v. on day 1), 200%. Moreover, the results for the “TOX (toxic death)” value in data set [3] (1.6 mg/Kg i.v. on day 1), in data set [3] (1.9 mg/Kg i.v. on day 1) and in data set [3] (2.29 mg/Kg i.v. on day 1) were 0/10, 0/10 and 1/10, respectively.
Take `COc1cccc2c1C(=O)c1c(O)c3c(c(O)c1C2=O)C[C@@](O)(C(C)=O)C[C@@H]3O[C@H]1C[C@H](N)[C@H](O)[C@H](C)O1` [DNR, daunorubicin]: the IC50 in data set [1] (LoVo, 4 h) turned out to be 50.3 µg/mL (≈ 95.4 µM); in data set [2], 1800 µg/mL (≈ 3420 µM). Moreover, the T/C % in data set [3] (10 mg/Kg i.v. on day 1) is 133%; in data set [3] (15 mg/Kg i.v. on day 1), 167%; in data set [3] (22.5 mg/Kg i.v. on day 1) it was 200%. Moreover, the “TOX (toxic death)” value in data set [3] (10 mg/Kg i.v. on day 1) is recorded as 0/10; in data set [3] (15 mg/Kg i.v. on day 1), 0/10; in data set [3] (22.5 mg/Kg i.v. on day 1) it was 1/10.
